The target of one assay is Beta-lactamase OXA-1 (Escherichia coli, UniProt P13661). In words: Inhibitory activity against Escherichia coli HA209 Class-V OXA-1 type beta-lactamase enzyme.
A further assay addresses Beta-lactamase TEM (Escherichia coli, UniProt P62593). In words: Inhibitory activity against Escherichia coli HA58R Class-III TEM-1 type beta-lactamase enzyme.
Assay [1] addresses Beta-lactamase (Staphylococcus aureus, UniProt P00807). Briefly: Inhibitory activity against Staphylococcus aureus CJ8 beta-lactamase enzyme.
The target in assay [2] is Beta-lactamase (Enterobacter cloacae, UniProt P05364). Briefly: Inhibitory activity against Enterobacter cloacae HC8 Class-I beta-lactamase enzyme type P99.
Assay [3] concerns the target T1, Beta-lactamase (Klebsiella oxytoca, UniProt Q8RT60).
T1 sequence (Q8RT60 whole entry): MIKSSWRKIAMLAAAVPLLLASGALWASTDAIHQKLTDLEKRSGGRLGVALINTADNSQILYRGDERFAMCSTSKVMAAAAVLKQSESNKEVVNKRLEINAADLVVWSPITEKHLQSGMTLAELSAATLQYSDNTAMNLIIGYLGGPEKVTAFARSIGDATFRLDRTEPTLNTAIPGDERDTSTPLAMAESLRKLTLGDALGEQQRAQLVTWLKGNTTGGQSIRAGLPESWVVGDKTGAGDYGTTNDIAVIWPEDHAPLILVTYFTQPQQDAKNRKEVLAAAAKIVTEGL
Briefly: Inhibitory activity against Klebsiella oxytoca HC7 Class-IV K1 type beta-lactamase enzyme.

The next assay has as its target T2, Beta-lactamase SHV-1 (Escherichia coli, UniProt P0AD63).
T2 sequence (P0AD63 whole entry): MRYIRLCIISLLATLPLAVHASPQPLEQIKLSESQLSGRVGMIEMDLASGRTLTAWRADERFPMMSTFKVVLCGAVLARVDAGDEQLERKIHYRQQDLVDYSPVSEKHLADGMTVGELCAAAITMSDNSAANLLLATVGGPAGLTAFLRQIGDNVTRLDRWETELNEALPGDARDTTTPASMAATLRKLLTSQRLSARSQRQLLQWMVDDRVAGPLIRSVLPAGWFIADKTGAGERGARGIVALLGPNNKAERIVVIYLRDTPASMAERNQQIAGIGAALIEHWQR
Briefly: Inhibitory activity against Escherichia coli HA208 Class-III SHV-1 type beta-lactamase enzyme.

The target in assay [4] is Beta-lactamase (Citrobacter freundii, UniProt P05193). In words: Inhibitory activity against Citrobacter freundii 87470 Class-I beta-lactamase enzyme.
The target in a further assay is T3, Beta-lactamase BRO-1 (Moraxella catarrhalis, UniProt Q59514).
T3 sequence (Q59514 whole entry): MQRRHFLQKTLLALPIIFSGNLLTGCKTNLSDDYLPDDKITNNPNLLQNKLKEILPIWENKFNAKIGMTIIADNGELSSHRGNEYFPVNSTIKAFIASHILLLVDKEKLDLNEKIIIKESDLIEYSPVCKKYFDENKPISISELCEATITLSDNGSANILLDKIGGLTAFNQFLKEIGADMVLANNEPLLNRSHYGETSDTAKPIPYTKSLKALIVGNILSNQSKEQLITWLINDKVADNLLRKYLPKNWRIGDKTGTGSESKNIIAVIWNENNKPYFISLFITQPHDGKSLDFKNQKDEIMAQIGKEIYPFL
In words: Inhibitory activity against Branhamella catarrhalis 89001 Class-III BRO-1 type beta-lactamase enzyme. Further details: species or system b.catarr.

Sequence of Beta-lactamase OXA-1 (P13661 whole entry): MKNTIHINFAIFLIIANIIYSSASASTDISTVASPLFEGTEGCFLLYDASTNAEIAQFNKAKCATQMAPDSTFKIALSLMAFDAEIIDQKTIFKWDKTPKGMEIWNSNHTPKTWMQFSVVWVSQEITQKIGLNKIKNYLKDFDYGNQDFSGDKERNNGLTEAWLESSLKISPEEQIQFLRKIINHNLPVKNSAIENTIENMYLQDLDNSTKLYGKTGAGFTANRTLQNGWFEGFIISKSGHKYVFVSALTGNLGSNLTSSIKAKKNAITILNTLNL
Sequence of Beta-lactamase TEM (P62593 whole entry): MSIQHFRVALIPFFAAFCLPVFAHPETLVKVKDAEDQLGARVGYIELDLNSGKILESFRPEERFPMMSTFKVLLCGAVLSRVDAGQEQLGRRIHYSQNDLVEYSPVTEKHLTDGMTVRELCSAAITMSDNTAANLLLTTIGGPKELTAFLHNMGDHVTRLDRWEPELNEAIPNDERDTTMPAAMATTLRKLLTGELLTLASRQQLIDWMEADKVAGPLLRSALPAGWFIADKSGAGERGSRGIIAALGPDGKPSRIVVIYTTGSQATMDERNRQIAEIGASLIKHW
Sequence of Beta-lactamase (Citrobacter freundii, UniProt P05193) (P05193 whole entry): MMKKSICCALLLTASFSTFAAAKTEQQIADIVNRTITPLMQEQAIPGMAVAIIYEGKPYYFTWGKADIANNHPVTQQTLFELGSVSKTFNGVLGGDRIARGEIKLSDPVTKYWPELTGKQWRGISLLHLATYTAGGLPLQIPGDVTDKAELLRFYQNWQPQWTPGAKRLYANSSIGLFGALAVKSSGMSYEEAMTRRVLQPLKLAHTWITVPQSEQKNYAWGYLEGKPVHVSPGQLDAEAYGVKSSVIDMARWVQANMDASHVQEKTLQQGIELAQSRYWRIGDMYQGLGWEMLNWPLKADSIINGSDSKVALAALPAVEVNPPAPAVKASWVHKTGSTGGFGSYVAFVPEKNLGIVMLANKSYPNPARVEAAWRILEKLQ
Sequence of Beta-lactamase (Staphylococcus aureus, UniProt P00807) (P00807 whole entry): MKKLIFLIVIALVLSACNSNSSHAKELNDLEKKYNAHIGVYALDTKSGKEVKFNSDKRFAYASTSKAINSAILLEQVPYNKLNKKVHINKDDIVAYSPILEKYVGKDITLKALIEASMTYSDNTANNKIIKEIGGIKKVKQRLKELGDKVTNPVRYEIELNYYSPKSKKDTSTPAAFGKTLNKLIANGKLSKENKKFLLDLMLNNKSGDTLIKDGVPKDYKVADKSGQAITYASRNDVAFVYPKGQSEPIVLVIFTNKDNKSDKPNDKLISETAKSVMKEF
Sequence of Beta-lactamase (Enterobacter cloacae, UniProt P05364) (P05364 whole entry): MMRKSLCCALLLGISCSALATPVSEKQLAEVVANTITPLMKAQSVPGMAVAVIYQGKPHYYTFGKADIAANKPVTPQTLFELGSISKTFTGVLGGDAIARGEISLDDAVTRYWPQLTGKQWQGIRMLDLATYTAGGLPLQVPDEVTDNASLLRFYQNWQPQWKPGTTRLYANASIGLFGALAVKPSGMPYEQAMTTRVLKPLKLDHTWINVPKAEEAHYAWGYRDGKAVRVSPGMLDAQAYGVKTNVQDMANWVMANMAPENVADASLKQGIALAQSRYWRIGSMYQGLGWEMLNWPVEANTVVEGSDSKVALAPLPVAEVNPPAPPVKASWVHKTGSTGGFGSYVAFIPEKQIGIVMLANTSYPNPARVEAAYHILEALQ

For `C[C@]1(CSc2nc3ccccc3o2)[C@H](C(=O)O)N2C(=O)C[C@H]2S1(=O)=O`, the results for the IC50 on Beta-lactamase OXA-1 and at Beta-lactamase TEM were 83.7 nM and 10.5 nM, respectively.

Take `C[C@@]1(CSc2nc3ccccc3o2)S[C@@H]2[C@H](Br)C(=O)N2[C@H]1C(=O)O`: the IC50 (commonly the concentration that gives 50% inhibition) is 116 nM on Beta-lactamase [1]; 18.4 µM against Beta-lactamase [2]; 1160 nM on Beta-lactamase [3]; 147 nM at Beta-lactamase SHV-1; 30.3 nM against Beta-lactamase TEM; 14.7 µM against Beta-lactamase [4].

In the case of `C[C@@]1(CSc2nc3ccccc3s2)S[C@@H]2[C@H](Br)C(=O)N2[C@H]1C(=O)O`, the concentration for half-maximal inhibition (IC50) against Beta-lactamase BRO-1 was 56.1 nM; on Beta-lactamase SHV-1, 141 nM; against Beta-lactamase OXA-1, 1410 nM; against Beta-lactamase TEM, 35.9 nM.

With `Cn1cnnc1SC[C@@]1(C)[C@H](C(=O)O)N2C(=O)C[C@H]2S1(=O)=O`, the IC50 is 2.89 nM against Beta-lactamase BRO-1, 577 nM against Beta-lactamase SHV-1 and 72.2 nM against Beta-lactamase TEM.

`CC1(C)[C@H](C(=O)O)N2C(=O)C[C@H]2S1(=O)=O` [SULBACTAM]: the IC50 is 1710 nM against Beta-lactamase SHV-1 and 1370 nM against Beta-lactamase OXA-1.

`O=C(O)[C@H]1/C(=C/CO)O[C@@H]2CC(=O)N21` [CLAVULANIC ACID] gave an IC50 against Beta-lactamase BRO-1 of 30.1 nM.

As to `Cn1ccnc1SC[C@@]1(C)[C@H](C(=O)O)N2C(=O)C[C@H]2S1(=O)=O`, the IC50 is 2.9 nM against Beta-lactamase BRO-1, 926 nM at Beta-lactamase SHV-1 and 463 nM on Beta-lactamase OXA-1.

With `Cn1nnnc1SC[C@@]1(C)[C@H](C(=O)O)N2C(=O)C[C@H]2S1(=O)=O`, the IC50 is 8.64 nM on Beta-lactamase BRO-1, 72 nM at Beta-lactamase SHV-1, 92.1 nM at Beta-lactamase OXA-1 and 17.3 nM against Beta-lactamase TEM.

In the case of `C[C@]1(Cn2ccnn2)[C@H](C(=O)O)N2C(=O)C[C@H]2S1(=O)=O` [TAZOBACTAM], the IC50 at Beta-lactamase BRO-1 was 33.3 nM; against Beta-lactamase SHV-1 it was 133 nM.

On to `C[C@]1(CSc2nc3ccccc3[nH]2)[C@H](C(=O)O)N2C(=O)C[C@H]2S1(=O)=O`, for which the IC50 against Beta-lactamase SHV-1 is 655 nM; at Beta-lactamase TEM it was 65.5 nM.

`Cn1ccnc1SC[C@]1(C)S[C@@H]2[C@H](Br)C(=O)N2[C@H]1C(=O)O`: the IC50 against Beta-lactamase BRO-1 is 63.7 nM; against Beta-lactamase SHV-1, 51 nM; against Beta-lactamase OXA-1 it was 10200 nM; against Beta-lactamase TEM it was 15.3 nM.

Consider `C[C@]1(CSC2=NCCS2)[C@H](C(=O)O)N2C(=O)C[C@H]2S1(=O)=O`, for which the IC50 on Beta-lactamase BRO-1 was 2.85 nM; on Beta-lactamase SHV-1, 371 nM; against Beta-lactamase OXA-1 it was 114 nM; against Beta-lactamase TEM, 22.8 nM.

Regarding `Cn1nnnc1SC[C@]1(C)S[C@@H]2[C@H](Br)C(=O)N2[C@H]1C(=O)O`, the IC50 against Beta-lactamase BRO-1 was 50.7 nM; at Beta-lactamase SHV-1, 1010 nM; at Beta-lactamase OXA-1, 8120 nM; on Beta-lactamase TEM it was 101 nM.

These data come from ChEMBL document CHEMBL1151538, “Rearrangement of unsymmetrical azetidinone disulfides to 2-(heterocyclylthiomethyl)penams, a synthetic approach to new -lactamase inhibitors” (Bioorg Med Chem Lett, 1993).
